According to the supplement of paper PMC10307832:

Columns and labels:
Experiment in all cases: relative viability (nuclei count vs DMSO), 5 days (fraction); higher = more cells survive
[1] = compound: CCC1=CN=CN=C1N2CCN(CC2)CC3=NC4=C(N3)C=C(C=C4)C(F)(F)F + CC(=O)Nc1cccc(-n2c(=O)n(C3CC3)c(=O)c3c(Nc4ccc(I)cc4F)n(C)c(=O)c(C)c32)c1 [Trametinib] (partner 0.02 µM)
Summary of the method: (§1)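 Cells from lung cancer lines were seeded into 1536-well plates and, one day later, dosed by pin tool. Treatments were either a single drug or a fixed dose of an anchor drug with five library-drug doses (not always all listed) in √10 steps. After 5 days, nuclei were stained in a one-step fixation (final 0.05% Triton X-100, 1% formaldehyde, 1 ug/ml Hoechst) and counted on 4× images, and relative viability is the treated-to-vehicle nuclei ratio, as the median of duplicate plates.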

[2] = compound: CCC1=CN=CN=C1N2CCN(CC2)CC3=NC4=C(N3)C=C(C=C4)C(F)(F)F + CS(=O)(=O)N1CCN(Cc2cc3nc(-c4cccc5[nH]ncc45)nc(N4CCOCC4)c3s2)CC1 [Pictilisib] (partner 1 µM)
Summary of the method: as §1

[3] = compound: CCn1c(-c2nonc2N)nc2cnc(Oc3cccc(NC(=O)c4ccc(OCCN5CCOCC5)cc4)c3)cc21 + C[C@]1(O)C[C@@H](c2nc(-c3ccc4ccc(-c5ccccc5)nc4c3)c3c(N)nccn32)C1 [Linsitinib] (partner 1 µM)
Summary of the method: as §1

[4] = compound: N=C1NC(=O)/C(=C/c2ccc(O)cc2)S1 [Mirin] + COc1cc2c(Oc3ccc(NC(=O)C4(C(=O)Nc5ccc(F)cc5)CC4)cc3F)ccnc2cc1OCCCN1CCOCC1 [Foretinib] (partner 0.25 µM)
Summary of the method: as §1

In the case of UMC-11, the relative viability ([1]; first compound 0.04 µM) is reported as 0.721, the relative viability ([1]; first compound 0.1265 µM) is reported as 0.592 and the relative viability ([1]; first compound 0.4 µM) is reported as 0.671. It also gave a relative viability ([1]; first compound 1.265 µM) of 0.514, a relative viability ([1]; first compound 4 µM) of 0.721 and a relative viability ([2]; first compound 0.04 µM) of 0.723. For the same cell line, the relative viability ([2]; first compound 0.1265 µM) was 0.832, the relative viability ([2]; first compound 0.4 µM) was 0.706 and the relative viability ([2]; first compound 1.265 µM) was 0.548. For the same cell line, the relative viability ([2]; first compound 4 µM) was 0.741, the relative viability ([3]; first compound 0.04 µM) was 1.14 and the relative viability ([3]; first compound 0.1265 µM) was 1.07. It also gave a relative viability ([3]; first compound 0.4 µM) of 0.915, a relative viability ([3]; first compound 1.265 µM) of 0.322 and a relative viability ([3]; first compound 4 µM) of 0.337. The relative viability ([4]; first compound 0.25 µM) was 1.03, the relative viability ([4]; first compound 0.7906 µM) was 1.05 and the relative viability ([4]; first compound 2.5 µM) was 1. It also gave a relative viability ([4]; first compound 7.906 µM) of 0.918 and a relative viability ([4]; first compound 25 µM) of 0.61.
